BindingDB's records for patent US11160797 (NOVARTIS AG, 2021)

Molecular target: T1, Activin receptor type-1 [172-499,R206H] (Homo sapiens, UniProt Q04771, R206H)
T1 construct: 172-499
Experiment: In Vitro Enzyme Inhibition Using a Biochemical Peptide Phosphorylation Assay- Caliper Assay

T1 sequence (Q04771 172-499 R206H): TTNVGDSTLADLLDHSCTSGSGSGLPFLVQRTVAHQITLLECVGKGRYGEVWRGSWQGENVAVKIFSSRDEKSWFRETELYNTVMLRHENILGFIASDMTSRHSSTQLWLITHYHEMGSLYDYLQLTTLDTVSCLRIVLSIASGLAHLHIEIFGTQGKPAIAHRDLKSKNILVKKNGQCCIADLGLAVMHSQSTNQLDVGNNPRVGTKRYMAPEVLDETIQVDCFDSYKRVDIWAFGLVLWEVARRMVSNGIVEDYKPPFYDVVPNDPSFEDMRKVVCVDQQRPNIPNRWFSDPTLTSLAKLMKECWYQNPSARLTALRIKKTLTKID

IC50: 140 nM
Structure (SMILES): CC(C)CN1c2ccc(-c3cncc(-c4ccc(=O)n(C(C)C)c4)c3)cc2CS1(=O)=O [US11160797, Example 50]
